Earlier results, collected in patent US20200215051A1, “NEBULIZATION COMPOSITION COMPRISING TIOTROPIUM AND INDACATEROL” (GLENMARK SPECIALTY S.A., priority 2019, published 2020).

Conditions: water

CCc1cc2c(cc1CC)CC(NC[C@H](O)c1ccc(O)c3[nH]c(=O)ccc13)C2 [Indacaterol, 5-[(1R)-2-[(5,6-diethyl-2,3-dihydro-1H-inden-2-yl)amino]-1-hydroxyethyl]-8-hydroxy-1H-quinolin-2-one]
aqueous solubility: very slightly soluble in water
